Reference: US20230404968A1, “Gamma Butyrolactone Derivatives for Inducing Differentiation in Neoplastic Cells” (priority 2022, published 2023)

Assays:
HL60 cells [1] = test: Cell viability (MTS) assay, HL60; details: for cellular viability (MTS): HL60 cancer cells, at the given concentrations, 24, 48, and 72 hours; for toxicity: HL60 cell line, at a concentration of induction of cellular differentiation (FIGS. 9B, 10B)
Experimental: (§1) Cell culture methods and treatments. HL60 and KG1a cell lines were cultivated in RPMI 1640 (Sigma-USA) culture medium supplemented with 1% penicillin/streptomycin (Gibco-USA), 10% and 20% fetal bovine serum (Gibco-USA) for HL60 and KG1a cell lines, respectively, and 0.5% Glutamax (Gibco-USA) for HL60 cell line. The cells were incubated at 37° C., 5% CO2, and 90% humidity. The stock solution (Mol/L) of HSL-C8, HSL-C12, and A-factor were prepared in 0.1% (v/v) and 0.2% (v/v) and 0.2% (v/v) DMSO, respectively, as a vehicle and stored at −80° C. Different dilutions of HSL-C8, HSL-C12, A-factor, and GBL were prepared from the stock solution, and […] (<4% of the total volume) of each were added to the wells containing 100 μL of cell suspension (10000 and 20000 HL60 and KG1a cells per well). 0.1% and 0.2% DMSO were used as the negative control for HSL-C8, HSL-C12, and A-factor for each test. Culture medium were used as the negative control for GBL.
(§2) Cell viability assay. The cell viability was evaluated via (MTS) assay. HL60, KG1a, and PBMC cells were treated with HSL-C8, HSL-C12, A-factor, and GBL in 96-well plates for 24, 48, and 72 hours. Thereafter, […], of MTS/PMS solution were added to each well and the cells were incubated for 90 minutes. The optical density (OD) of samples was measured via spectrophotometer (EPOCH, BioTek, USA) at 490 nm and the viability of cells was calculated via the following formula:
(§3) Cell viability (%)=[ODsample/ODcontrol]×100

KG1a cells [2] = test: Cell viability (MTS) assay, KG1a; details: for cellular viability (MTS): KG1a cancer cells, at the given concentrations, 24, 48, and 72 hours; for toxicity: KG1a cell line, at a concentration of induction of cellular differentiation (FIGS. 9C, 10C)
Experimental: as §1, §2, §3

[3] = tested on: peripheral blood mononuclear cells (PBMC); test: Cell viability (MTS) assay, PBMC; format: cell-based; details: normal cells (PBMC), at the given concentrations, 24, 48, and 72 hours
Experimental: Cell viability assay. The cell viability was evaluated via (MTS) assay.
as §3

HL60 cells [4] = test: Induction of differentiation: gene expression (qRT-PCR) and CD surface markers (flow cytometry), HL60; format: cell-based; details: HL60 cell line; confirmed by expression of FLT3, PU1, CEBPA genes and CD3, CD20, CD14, CD33, CD16, CD56 surface markers
Experimental: (§4) Cell culture methods and treatments.
(§5) Flow cytometry. […] In addition, treated cells were incubated with antibody-dye conjugate against CD3, CD20, CD16, CD56, CD14, and CD33 for surface antigen analysis. Thereafter the samples were analyzed by flow cytometer (Attune NxT, Life Technologies-Thermo Fisher Scientific, USA). Treatment with 5 μL H2O2 and 1 μM ATRA were used as the positive controls for apoptosis and necrosis and surface antigen analyses, respectively. Data were analyzed with FlowJo software.
(§6) RNA isolation and qRT-PCR. […] The concentration of extracted RNA was measured via spectrophotometer (EPOCH, BioTek, USA) at 260 nm. The quality of isolated RNA was further evaluated via agarose gel electrophoresis indicating two distinctive bands. Isolated RNA was then converted to cDNA via a commercial kit according to the manufacturer's instructions. The primers were designed with AlleleID software and Primer3 algorithm and then double-checked via the BLAST algorithm. cDNA samples were then prepared for analysis using a commercial kit and analyzed with qRT-PCR machine (Applied Biosystems-Thermo Fisher Scientific, USA).

KG1a cells [5] = test: Induction of differentiation: gene expression (qRT-PCR) and CD surface markers (flow cytometry), KG1a; format: cell-based; details: KG1a cell line; confirmed by expression of FLT3, PU1, CEBPA genes and CD3, CD20, CD14, CD33, CD16, CD56 surface markers
Experimental: as §4, §5, §6

HL60 cells [6] = test: Apoptosis/necrosis by flow cytometry, Annexin-V-FITC/PI staining, HL60; format: cell-based; details: for apoptosis (early and late) and necrosis: HL60 cells
Experimental: as §4, §5

KG1a cells [7] = test: Apoptosis/necrosis by flow cytometry, Annexin-V-FITC/PI staining, KG1a; format: cell-based
Experimental: as §4, §5

HL60 cells [8] = test: Wright-Giemsa staining and light microscopy (morphology), HL60; format: cell-based
Experimental: as §4
(§7) Wright-Giemsa staining. HL60 and KG1a cells treated HSL-C8 and HSL-C12 were concentrated and then fixed on the slides with absolute ethanol prior to Wright-Giemsa staining. After staining for four minutes the 1 mL of tap water was added to the slides. After four minutes, they were washed with tap water, air-dried, and evaluated with a light microscopy.

KG1a cells [9] = test: Wright-Giemsa staining and light microscopy (morphology), KG1a; format: cell-based
Experimental: as §4, §7

Compound	cellular viability (MTS) (HL60 cells [1])	toxicity (HL60 cells [1])	cellular viability (MTS) (KG1a cells [2])	toxicity (KG1a cells [2])	cellular viability (MTS) [3]	terminal cellular differentiation (HL60 cells [4])	terminal cellular differentiation (KG1a cells [5])	further results
CC(C)CCCCC(=O)C1C(=O)OCC1CO (stereo not drawn) [A-factor, 2-isocapryloyl-3R-hydroxymethyl-gamma-butyrolactone]	do not decrease the cellular viability of treated cancer cells and normal cells (PBMC) significantly	minimal toxicity	do not decrease the cellular viability of treated cancer cells and normal cells (PBMC) significantly	minimal toxicity	do not decrease the cellular viability of treated cancer cells and normal cells (PBMC) significantly	induced terminal cellular differentiation	induced terminal cellular differentiation	–
O=C1CCCO1 [GBL, Gamma butyrolactone]	do not decrease the cellular viability of treated cancer cells and normal cells (PBMC) significantly	minimal toxicity	do not decrease the cellular viability of treated cancer cells and normal cells (PBMC) significantly	minimal toxicity	do not decrease the cellular viability of treated cancer cells and normal cells (PBMC) significantly	induced terminal cellular differentiation	induced terminal cellular differentiation	apoptosis (early and late) and necrosis (HL60 cells [6]; 300 μM of GBL, 48 hours (FIG. 11)): minimal to no apoptosis (early and late) and necrosis; apoptosis (early and late) and necrosis (KG1a cells [7]; KG1a cells, 300 μM of GBL, 48 hours (FIG. 11)): minimal to no apoptosis (early and late) and necrosis
CCCCCC(=O)CC(=O)N[C@H]1CCOC1=O [HSL-C8]	do not decrease the cellular viability of treated cancer cells and normal cells (PBMC) significantly	–	do not decrease the cellular viability of treated cancer cells and normal cells (PBMC) significantly	–	do not decrease the cellular viability of treated cancer cells and normal cells (PBMC) significantly	induced terminal cellular differentiation	induced terminal cellular differentiation	concentrations that cause minimal to no apoptosis (HL60 cells [6]; human): ≤ 100 µM; concentrations that cause minimal to no apoptosis (KG1a cells [7]; human): ≤ 100 µM; change of cell morphology (HL60 cells [8]; 50 μM and 100 μM of HSL-C8, 48 and 72 hours (FIG. 7A)): neutrophil and macrophage-like cells, with lobulated nuclei and expanded cytoplasm; change of cell morphology (KG1a cells [9]; 100 μM and 200 μM of HSL-C8, 48 and 72 hours (FIG. 7B)): neutrophil and macrophage-like cells, with lobulated nuclei and expanded cytoplasm
CCCCCCCCCC(=O)CC(=O)N[C@H]1CCOC1=O [HSL-C12]	do not decrease the cellular viability of treated cancer cells and normal cells (PBMC) significantly	–	do not decrease the cellular viability of treated cancer cells and normal cells (PBMC) significantly	–	do not decrease the cellular viability of treated cancer cells and normal cells (PBMC) significantly	induced terminal cellular differentiation	induced terminal cellular differentiation	apoptosis (early and late) and necrosis (HL60 cells [6]; 50 and 100 μM of HSL-C12, 24 hours (FIG. 4A)): minimal to no apoptosis (early and late) and necrosis; apoptosis (early and late) and necrosis (HL60 cells [6]; 50 and 100 μM of HSL-C12, 48 hours (FIG. 4B)): minimal to no apoptosis (early and late) and necrosis; apoptosis (early and late) and necrosis (KG1a cells [7]; KG1a cells, 100 μM of HSL-C12, 24 hours (FIG. 4C)): minimal to no apoptosis (early and late) and necrosis; apoptosis (early and late) and necrosis (KG1a cells [7]; KG1a cells, 100 μM of HSL-C12, 48 hours (FIG. 4D)): minimal to no apoptosis (early and late) and necrosis; apoptosis and necrosis (KG1a cells [7]; KG1a cells, 150 μM of HSL-C12, 24 hours (FIG. 4C)): minimal apoptosis and necrosis; apoptosis (early and late) and necrosis (KG1a cells [7]; KG1a cells, 150 μM of HSL-C12, 48 hours (FIG. 4D)): moderate apoptosis (early and late) and necrosis; change of cell morphology (HL60 cells [8]; 100 μM and 150 μM of HSL-C12, 24 and 48 hours (FIG. 8A)): neutrophil and macrophage-like cells, with lobulated nuclei and expanded cytoplasm; change of cell morphology (KG1a cells [9]; 100 μM and 150 μM of HSL-C12, 24 and 48 hours (FIG. 8B)): neutrophil and macrophage-like cells, with lobulated nuclei and expanded cytoplasm
